In EP1632557B1, “Novel alkaline cellulases” (Novozymes A/S, priority 1994, dated 1995):

T1: EG I' from Fusarium oxysporum (Figure 4) (Fusarium oxysporum, UniProt P46237)
T1 sequence (P46237 19-429): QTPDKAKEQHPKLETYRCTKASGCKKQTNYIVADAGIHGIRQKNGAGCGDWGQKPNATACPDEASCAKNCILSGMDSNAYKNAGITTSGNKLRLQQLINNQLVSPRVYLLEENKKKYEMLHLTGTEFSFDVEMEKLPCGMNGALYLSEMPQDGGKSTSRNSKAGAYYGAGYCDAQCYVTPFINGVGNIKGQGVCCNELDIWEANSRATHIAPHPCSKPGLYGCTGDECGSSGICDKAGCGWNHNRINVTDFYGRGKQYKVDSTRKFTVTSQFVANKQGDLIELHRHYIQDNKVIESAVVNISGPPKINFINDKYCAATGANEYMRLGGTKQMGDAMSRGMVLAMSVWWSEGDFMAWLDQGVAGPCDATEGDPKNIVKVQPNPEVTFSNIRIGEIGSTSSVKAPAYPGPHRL

B1: EG I' from Fusarium oxysporum (Figure 4) (Fusarium oxysporum) (protein)
chain: T1 sequence (P46237 19-429)

Columns and labels:
[1] = target: T1, EG I' from Fusarium oxysporum (Figure 4); experiment: Cellulase activity on cellotriose (coupled glucose oxidase/peroxidase/ABTS assay); settings: pH 8,5 and 40°C; calculated from a Lineweaver-Burk plot
Description: (§1) The cellulase activity on cellotriose, in terms of kcat·s^-1, was determined by a coupled assay: Cellotriose → Glucose + Cellobiose (cat.: cellulase) Glucose + O2 + H2O → Gluconate + H2O2 (cat.: Glucoseoxidase) H2O2 + ABTS^R → ABTS^Ox (cat.: Peroxidase) which is followed spectrophotometrically at 418 nm (maximum absorbance of ABTS^Ox at 418 nm).
(§2) The GOD-Perid Test Kit (available from Boehringer Mannheim, art. 124 036) was used. The buffer-enzyme solution in the test kit was dissolved in 500 ml milli Q water. pH of the solution was adjusted to 8.5 (NaOH).
(§3) 80 mg of ABTS^R (available from Boehringer Mannheim, art. 756 407) was dissolved in 10 ml GOD-Perid corresponding to a total concentration of ABTS^R of 10 mg/ml.
(§4) A substrate stock solution of 5 mmole (2.52 mg/ml) of cellotriose (available from Merck art. 24741) in water was prepared. Diluted solutions in water corresponding to 1000 µmole, 500 µmole, 376 µmole, 250 µmole, 100 µmole and 60 µmole were prepared.
(§5) The reaction mixture was prepared by mixing 1 part of substrate solution with 1 part of GOD-Perid.
(§6) A solution of the cellulase enzyme to be determined in a concentration of 1.0 - 3.0 µmole was prepared. […]
(§7) The cellulase activity on cellotriose, in terms of kcat·s^-1, was calculated from a Lineweaver-Burk plot (a plot of 1/V versus 1/[S]): the slope and the intersection were determined by linear regression analysis. […]

[2] = substrate: OC[C@H]1O[C@@H](O[C@H]2[C@H](O)[C@@H](O)[C@H](O[C@H]3[C@H](O)[C@@H](O)C(O)O[C@@H]3CO)O[C@@H]2CO)[C@H](O)[C@@H](O)[C@@H]1O; experiment: purified protein, by the assay type; settings: other: substrate cellotriose, pH 8,5 and 40°C, calculated from a Lineweaver-Burk plot, pH 8.5
Description: as §1, §2, §3, §4, §5, §6, §7

Molecule	catalytic activity on cellotriose (Kcat) [1]	Km [2]
OC[C@H]1O[C@@H](O[C@H]2[C@H](O)[C@@H](O)[C@H](O[C@H]3[C@H](O)[C@@H](O)C(O)O[C@@H]3CO)O[C@@H]2CO)[C@H](O)[C@@H](O)[C@@H]1O (some centres unmarked) [cellotriose]	5,5 pr. sec	–
B1	–	500 µM
